ChEMBL document CHEMBL2021770, “Potent and Selective Inhibitors of Long Chain l-2-Hydroxy Acid Oxidase Reduced Blood Pressure in DOCA Salt-Treated Rats” (ACS Med Chem Lett, 2011)
Active and inactive are the calls of the source. The rule behind the calls is not given here.

Columns and labels:
[1] = system: Rattus norvegicus; assay: Antihypertensive activity in DOCA-salt treated Wistar rat assessed as decrease in systolic blood pressure at 10 mg/kg, po bid administered 29 days after DOCA-salt-challenge for 15 days 12 to 15 hrs post-last dose by plethysmography; type: functional, organism-based; set-up: dose 10 mg/kg; conditions: Artery
[2] = molecular target: T1, 2-Hydroxyacid oxidase 2 (Rattus norvegicus, UniProt Q07523); assay: Inhibition of rat His6-tagged Hao2 expressed in Escherichia coli BL21/DE3 using 2-hydroxyoctanoic acid as substrate measured every 10 secs by spectrophotometry
T1 sequence (Q07523 whole entry): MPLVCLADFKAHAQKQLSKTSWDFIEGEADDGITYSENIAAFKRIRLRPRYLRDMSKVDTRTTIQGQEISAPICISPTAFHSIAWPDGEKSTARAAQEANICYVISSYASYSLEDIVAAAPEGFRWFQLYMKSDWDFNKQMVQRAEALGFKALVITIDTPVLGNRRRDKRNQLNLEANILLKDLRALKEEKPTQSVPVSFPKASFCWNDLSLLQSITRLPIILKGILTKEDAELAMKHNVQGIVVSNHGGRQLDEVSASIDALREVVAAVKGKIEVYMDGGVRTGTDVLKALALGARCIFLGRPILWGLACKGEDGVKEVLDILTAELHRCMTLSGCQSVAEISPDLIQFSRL

[3] = molecular target: Cytochrome P450 3A4 (Homo sapiens, UniProt P08684); assay: Inhibition of CYP3A4; type: ADME
Sequence of Cytochrome P450 3A4 (P08684 whole entry): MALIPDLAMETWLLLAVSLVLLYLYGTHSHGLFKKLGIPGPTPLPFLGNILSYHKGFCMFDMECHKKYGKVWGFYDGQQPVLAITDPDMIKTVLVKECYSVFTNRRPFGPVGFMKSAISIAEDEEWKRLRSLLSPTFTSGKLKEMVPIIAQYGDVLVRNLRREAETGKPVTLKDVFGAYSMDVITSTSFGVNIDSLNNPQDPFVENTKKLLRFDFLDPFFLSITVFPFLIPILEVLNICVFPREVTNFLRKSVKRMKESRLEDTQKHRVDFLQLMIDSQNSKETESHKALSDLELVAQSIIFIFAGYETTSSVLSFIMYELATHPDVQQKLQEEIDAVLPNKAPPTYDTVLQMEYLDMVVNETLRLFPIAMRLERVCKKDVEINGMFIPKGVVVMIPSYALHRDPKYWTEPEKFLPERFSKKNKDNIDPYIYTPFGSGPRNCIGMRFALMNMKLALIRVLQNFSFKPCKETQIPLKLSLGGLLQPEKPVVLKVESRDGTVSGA

[4] = molecular target: Cytochrome P450 2C9 (Homo sapiens, UniProt P11712); assay: Inhibition of CYP2C9; type: ADME
Sequence of Cytochrome P450 2C9 (P11712 whole entry): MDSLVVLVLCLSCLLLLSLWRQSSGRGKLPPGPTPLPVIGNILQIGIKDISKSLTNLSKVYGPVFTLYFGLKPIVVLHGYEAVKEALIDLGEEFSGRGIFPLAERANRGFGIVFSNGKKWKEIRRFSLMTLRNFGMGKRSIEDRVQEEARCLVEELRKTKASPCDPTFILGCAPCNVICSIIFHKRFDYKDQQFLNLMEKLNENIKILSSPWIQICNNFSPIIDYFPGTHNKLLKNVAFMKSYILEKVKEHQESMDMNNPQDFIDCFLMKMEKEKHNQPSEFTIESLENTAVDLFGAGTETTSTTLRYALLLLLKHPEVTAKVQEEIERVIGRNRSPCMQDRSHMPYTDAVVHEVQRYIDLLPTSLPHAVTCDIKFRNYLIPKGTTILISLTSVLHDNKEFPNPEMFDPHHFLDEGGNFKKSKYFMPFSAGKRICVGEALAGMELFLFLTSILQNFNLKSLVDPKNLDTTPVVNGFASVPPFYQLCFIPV

[5] = molecular target: Cytochrome P450 2D6 (Homo sapiens, UniProt P10635); assay: Inhibition of CYP2D6; type: ADME
Sequence of Cytochrome P450 2D6 (P10635 whole entry): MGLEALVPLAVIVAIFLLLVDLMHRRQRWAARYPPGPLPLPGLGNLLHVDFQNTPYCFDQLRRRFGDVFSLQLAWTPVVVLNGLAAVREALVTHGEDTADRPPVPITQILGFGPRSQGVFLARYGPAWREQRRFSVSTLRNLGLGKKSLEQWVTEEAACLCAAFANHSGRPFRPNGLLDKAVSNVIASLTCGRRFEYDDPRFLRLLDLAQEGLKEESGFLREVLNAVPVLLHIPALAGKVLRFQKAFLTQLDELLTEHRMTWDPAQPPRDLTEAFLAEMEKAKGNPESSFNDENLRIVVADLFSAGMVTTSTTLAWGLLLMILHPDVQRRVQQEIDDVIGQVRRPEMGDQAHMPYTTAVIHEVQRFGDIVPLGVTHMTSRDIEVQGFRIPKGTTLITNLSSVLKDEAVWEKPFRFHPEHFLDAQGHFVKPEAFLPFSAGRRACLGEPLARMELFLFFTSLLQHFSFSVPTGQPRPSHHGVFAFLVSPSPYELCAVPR

[6] = molecular target: Cytochrome P450 2C19 (Homo sapiens, UniProt P33261); assay: Inhibition of CYP2C19; type: ADME
Sequence of Cytochrome P450 2C19 (P33261 whole entry): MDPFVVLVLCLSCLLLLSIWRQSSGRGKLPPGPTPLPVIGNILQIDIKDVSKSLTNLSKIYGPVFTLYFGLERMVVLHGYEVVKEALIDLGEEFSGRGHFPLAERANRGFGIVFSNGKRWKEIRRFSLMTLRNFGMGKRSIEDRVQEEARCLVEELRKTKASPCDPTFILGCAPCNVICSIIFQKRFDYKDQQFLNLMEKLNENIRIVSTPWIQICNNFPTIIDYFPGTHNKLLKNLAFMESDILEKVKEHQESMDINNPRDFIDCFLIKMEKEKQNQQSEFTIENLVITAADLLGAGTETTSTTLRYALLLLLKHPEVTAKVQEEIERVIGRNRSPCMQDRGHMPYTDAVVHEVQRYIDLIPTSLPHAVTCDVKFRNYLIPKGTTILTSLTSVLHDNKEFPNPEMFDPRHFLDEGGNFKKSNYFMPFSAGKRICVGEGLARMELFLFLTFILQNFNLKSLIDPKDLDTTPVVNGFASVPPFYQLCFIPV

[7] = molecular target: T2, Cytochrome P450 1A2 (Homo sapiens, UniProt P05177); assay: Inhibition of CYP1A2; type: ADME
T2 sequence (P05177 whole entry): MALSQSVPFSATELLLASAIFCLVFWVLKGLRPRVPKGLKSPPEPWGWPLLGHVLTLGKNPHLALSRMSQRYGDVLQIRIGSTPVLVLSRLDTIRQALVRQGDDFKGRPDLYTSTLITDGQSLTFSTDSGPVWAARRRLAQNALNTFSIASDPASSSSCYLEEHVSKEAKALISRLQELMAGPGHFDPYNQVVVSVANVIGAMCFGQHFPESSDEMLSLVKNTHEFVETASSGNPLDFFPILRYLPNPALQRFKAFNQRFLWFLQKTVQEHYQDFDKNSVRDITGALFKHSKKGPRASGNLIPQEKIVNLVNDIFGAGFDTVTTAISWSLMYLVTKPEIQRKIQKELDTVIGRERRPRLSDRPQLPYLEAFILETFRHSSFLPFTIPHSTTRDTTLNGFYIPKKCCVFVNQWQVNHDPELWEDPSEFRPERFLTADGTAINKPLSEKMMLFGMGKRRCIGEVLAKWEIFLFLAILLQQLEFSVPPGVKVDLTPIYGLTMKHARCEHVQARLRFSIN

[8] = Induction of cytochrome P450 at 10 uM; type: ADME
[9] = Plasma protein binding in rat; type: ADME, cell-free; conditions: read-out: PPB
[10] = molecular target: T3, Nuclear receptor subfamily 1 group I member 2 (Homo sapiens, UniProt O75469); assay: Induction of PXR at 100 uM
T3 sequence (O75469 whole entry): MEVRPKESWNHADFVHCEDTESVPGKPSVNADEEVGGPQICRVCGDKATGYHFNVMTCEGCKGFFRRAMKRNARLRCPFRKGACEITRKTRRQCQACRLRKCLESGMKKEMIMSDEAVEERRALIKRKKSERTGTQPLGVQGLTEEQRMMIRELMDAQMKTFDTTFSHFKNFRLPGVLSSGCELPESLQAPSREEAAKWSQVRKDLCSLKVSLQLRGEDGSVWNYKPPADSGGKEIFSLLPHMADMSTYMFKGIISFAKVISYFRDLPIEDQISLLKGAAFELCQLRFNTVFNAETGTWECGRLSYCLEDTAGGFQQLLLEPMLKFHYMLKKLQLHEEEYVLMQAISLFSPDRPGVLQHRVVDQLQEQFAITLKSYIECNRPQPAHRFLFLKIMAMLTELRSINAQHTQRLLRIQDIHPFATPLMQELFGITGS

[11] = Clearance in rat at 1 mg/kg, iv; type: ADME, organism-based; set-up: dose 1 mg/kg, route intravenous; conditions: in vivo
[12] = Volume of distribution at steady state in rat at 1 mg/kg, iv; type: ADME, organism-based; set-up: dose 1 mg/kg, route intravenous; conditions: in vivo, read-out: Vdss
[13] = Cmax in rat at 10 mg/kg, po; type: ADME, organism-based; set-up: dose 10 mg/kg, route oral; conditions: in vivo
[14] = Tmax in rat at 10 mg/kg, po; type: ADME, organism-based; set-up: dose 10 mg/kg, route oral; conditions: in vivo
[15] = AUC (0 to 8 hrs) in rat at 1 mg/kg, iv; type: ADME, organism-based; set-up: time < 8 hr, dose 1 mg/kg, route intravenous; conditions: plasma
[16] = AUC (0 to 8 hrs) in rat at 10 mg/kg, po; type: ADME, organism-based; set-up: time < 8 hr, dose 10 mg/kg, route oral; conditions: plasma
[17] = Elimination half life in rat at 1 mg/kg, iv; type: ADME, organism-based; set-up: dose 1 mg/kg, route intravenous; conditions: in vivo, read-out: beta t1/2 (converted)
[18] = Elimination half life in rat at 10 mg/kg, po; type: ADME, organism-based; set-up: dose 10 mg/kg, route oral; conditions: in vivo, read-out: beta t1/2 (converted)
[19] = Oral bioavailability in rat at 10 mg/kg; type: ADME, organism-based; conditions: in vivo
[20] = Plasma concentration in Wistar rat at 3 mg/kg, po bid administered for 15 days measured 1 hr post-last dose; type: ADME, organism-based; set-up: dose 3 mg/kg, route oral
[21] = Plasma concentration in Wistar rat at 30 mg/kg, po bid administered for 15 days measured 1 hr post-last dose; type: ADME, organism-based; set-up: dose 30 mg/kg, route oral
[22] = system: Plasma; assay: Plasma concentration in Wistar rat at 3 mg/kg, po bid administered for 15 days measured 12 to 15 hrs post-last dose; type: ADME, organism-based; set-up: dose 3 mg/kg, route oral; conditions: in vivo
[23] = system: Plasma; assay: Plasma concentration in Wistar rat at 30 mg/kg, po bid administered for 15 days measured 12 to 15 hrs post-last dose; type: ADME, organism-based; set-up: dose 30 mg/kg, route oral; conditions: in vivo
[24] = system: Kidney; assay: Drug uptake in Wistar rat kidney at 3 mg/kg, po bid administered for 15 days measured 1 hr post-last dose; type: ADME, organism-based; set-up: dose 3 mg/kg, route oral; conditions: in vivo
[25] = system: Kidney; assay: Drug uptake in Wistar rat kidney at 30 mg/kg, po bid administered for 15 days measured 1 hr post-last dose; type: ADME, organism-based; set-up: dose 30 mg/kg, route oral; conditions: in vivo
[26] = system: Kidney; assay: Drug uptake in Wistar rat kidney at 3 mg/kg, po bid administered for 15 days measured 12 to 15 hrs post-last dose; type: ADME, organism-based; set-up: dose 3 mg/kg, route oral; conditions: in vivo
[27] = Drug metabolism in rat liver microsomes assessed as metabolic rate per 0.125 mg/mL protein; type: ADME, Microsome
[28] = molecular target: T4, 2-Hydroxyacid oxidase 1 (Rattus norvegicus) (UniProt B0BNF9); assay: Inhibition of rat His6-tagged Hao1 expressed in Escherichia coli BL21/DE3 using glcolic acid as substrate at 10 uM measured every 10 secs by spectrophotometry
T4 sequence (whole entry): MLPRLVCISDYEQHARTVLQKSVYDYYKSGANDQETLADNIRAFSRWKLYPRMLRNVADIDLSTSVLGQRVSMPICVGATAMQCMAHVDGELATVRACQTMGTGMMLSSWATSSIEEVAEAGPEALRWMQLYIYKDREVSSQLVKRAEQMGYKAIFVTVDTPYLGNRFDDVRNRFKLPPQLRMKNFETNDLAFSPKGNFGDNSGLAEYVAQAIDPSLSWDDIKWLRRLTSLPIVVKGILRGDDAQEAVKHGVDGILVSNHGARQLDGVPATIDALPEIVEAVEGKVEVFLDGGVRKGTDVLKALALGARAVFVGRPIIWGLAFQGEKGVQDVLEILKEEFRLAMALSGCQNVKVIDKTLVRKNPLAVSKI

[29] = molecular target: Hydroxycarboxylic acid receptor 2 (Homo sapiens) (UniProt Q8TDS4); assay: Agonist activity at human GPR109a at 10 uM; type: functional
Sequence of Hydroxycarboxylic acid receptor 2 (Homo sapiens) (Q8TDS4 whole entry): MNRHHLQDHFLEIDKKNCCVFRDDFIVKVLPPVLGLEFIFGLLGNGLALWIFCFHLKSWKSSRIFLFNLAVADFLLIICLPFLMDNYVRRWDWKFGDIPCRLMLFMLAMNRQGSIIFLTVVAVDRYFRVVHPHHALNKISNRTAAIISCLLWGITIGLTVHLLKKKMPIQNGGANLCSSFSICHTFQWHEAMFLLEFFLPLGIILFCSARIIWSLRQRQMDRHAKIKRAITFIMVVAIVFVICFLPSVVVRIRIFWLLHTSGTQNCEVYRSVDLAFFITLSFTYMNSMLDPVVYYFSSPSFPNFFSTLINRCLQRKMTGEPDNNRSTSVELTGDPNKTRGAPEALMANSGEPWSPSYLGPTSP

[30] = system: HepG2; assay: Cytotoxicity against human HepG2 cells; type: cell-based
[31] = system: Rattus norvegicus; assay: Antihypertensive activity in DOCA-salt treated Wistar rat assessed as decrease in systolic blood pressure at 3 mg/kg, po bid administered 29 days after DOCA-salt-challenge for 15 days 12 to 15 hrs post-last dose by plethysmography; type: functional
[32] = system: Rattus norvegicus; assay: Antihypertensive activity in DOCA-salt treated Wistar rat assessed as decrease in systolic blood pressure at 30 mg/kg, po bid administered 29 days after DOCA-salt-challenge for 15 days 12 to 15 hrs post-last dose by plethysmography; type: functional, Artery
[33] = system: Rattus norvegicus; assay: (§1) Ex-vivo inhibition of Hao2 in DOCA-salt treated Wistar rat kidney using [3H]-2-hydroxyoctanate as substrate assessed as inhibition of [3H]-H2O production at 3 mg/kg, po bid administered 29 days post DOCA-challenge for 15 days measured 1 hr post-last dose by microbeta counting relative to vehicle-treated control; type: functional
[34] = system: Rattus norvegicus; assay: as §1, with “at 30” for “at 3”; type: functional
[35] = system: Rattus norvegicus; assay: as §1, with “12 to 15 hrs” for “1 hr”; type: functional
[36] = system: Rattus norvegicus; assay: as §1, with “at 30” for “at 3”, “measured 12 to 15 hrs” for “measured 1 hr”; type: functional
[37] = organism: Rattus norvegicus; assay: Selectivity ratio of IC50 for rat Hao1 to IC50 for rat Hao2
[38] = molecular target: T5, 2-Hydroxyacid oxidase 2 (Rattus norvegicus) (UniProt Q07523); assay: Inhibition of rat His6-tagged Hao2 expressed in Escherichia coli BL21/DE3 using 2-hydroxyoctanoic acid as substrate at 10 uM measured every 10 secs by spectrophotometry
T5 sequence (whole entry): T1 sequence (Q07523 whole entry)

## CC(C)NCC(O)COc1ccc(CC(N)=O)cc1 (stereo not drawn)
[1]
  Activity: Active

## Cc1[nH]nc(C(=O)O)c1Cc1cc2ccccc2s1
[2]
  IC50: 0.3 µM
[3]
  IC50: > 10 µM
[4]
  IC50: > 10 µM
[5]
  IC50: > 10 µM
[6]
  IC50: > 10 µM
[7]
  IC50: > 10 µM
[8]
  Activity: Not Active
[9]
  fraction unbound: < 0.01
[10]
  Activity: Not Active
[11]
  clearance: 0.0312 L/h/kg
[12]
  Vd: 0.14 L/kg
[13]
  Cmax: 134 µM
[14]
  Tmax: 0.25 h
[15]
  AUC(0-t) at 8 h: 97 µM·h
[16]
  AUC(0-t) at 8 h: 517 µM·h
[17]
  half-life: 3.7 h
[18]
  half-life: 4.1 h
[19]
  bioavailability: 53%
[20]
  concentration at 1 h: 48 µM
[21]
  concentration at 1 h: 157 µM
[22]
  concentration: 12 µM
[23]
  concentration: 86 µM
[24]
  Drug uptake: 34 nmol/g
[25]
  Drug uptake: 113 nmol/g
[26]
  Drug uptake: 13 nmol/g
[27]
  Drug metabolism: 0.02 nmol/min/mg

## Cc1n[nH]c(C(=O)O)c1Cc1cc2ccccc2s1
[28]
  inhibition: inactive
[29]
  Activity: inactive
[30]
  IC50: > 100 µM
[31]
  Activity: 27 mmHg
[32]
  Activity: 33 mmHg
[33]
  inhibition in vivo at 3 mg/kg: 75%
[34]
  inhibition in vivo at 30 mg/kg: 93%
[35]
  inhibition in vivo at 3 mg/kg: 0%
[36]
  inhibition in vivo at 30 mg/kg: 42%
[37]
  Ratio IC50: 150

## Cc1n[nH]c(C(=O)O)c1-c1ccc(F)cc1
[38]
  inhibition: 35%
